Source: ChEMBL document CHEMBL5291721, “A preclinical secondary pharmacology resource illuminates target-adverse drug reaction associations of marketed drugs” (Nat Commun, 2023)

Key:
Acetylcholinesterase = Acetylcholinesterase (Homo sapiens, UniProt P22303); format: functional
[1] = molecular target: T1, Muscarinic acetylcholine receptor M2 (Homo sapiens, UniProt P08172)
T1 sequence (P08172 whole entry): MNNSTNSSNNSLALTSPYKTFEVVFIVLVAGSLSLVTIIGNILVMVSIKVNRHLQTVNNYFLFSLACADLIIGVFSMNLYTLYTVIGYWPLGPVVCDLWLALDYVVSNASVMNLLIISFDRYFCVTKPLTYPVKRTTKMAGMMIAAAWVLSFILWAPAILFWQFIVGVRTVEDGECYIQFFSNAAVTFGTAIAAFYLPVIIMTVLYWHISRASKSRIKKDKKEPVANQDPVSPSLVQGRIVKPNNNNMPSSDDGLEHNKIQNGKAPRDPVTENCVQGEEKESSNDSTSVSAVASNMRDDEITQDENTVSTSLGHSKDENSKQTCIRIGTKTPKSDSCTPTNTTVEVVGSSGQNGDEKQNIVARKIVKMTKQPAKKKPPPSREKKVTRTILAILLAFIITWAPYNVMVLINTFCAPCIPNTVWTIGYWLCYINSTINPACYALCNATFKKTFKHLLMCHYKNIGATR

D(1A) dopamine receptor = D(1A) dopamine receptor (Homo sapiens, UniProt P21728)
D(3) dopamine receptor = D(3) dopamine receptor (Homo sapiens, UniProt P35462)
Histamine H3 receptor = Histamine H3 receptor (Homo sapiens, UniProt Q9Y5N1)
[2] = molecular target: T2, 5-hydroxytryptamine receptor 1A (Homo sapiens, UniProt P08908)
T2 sequence (P08908 whole entry): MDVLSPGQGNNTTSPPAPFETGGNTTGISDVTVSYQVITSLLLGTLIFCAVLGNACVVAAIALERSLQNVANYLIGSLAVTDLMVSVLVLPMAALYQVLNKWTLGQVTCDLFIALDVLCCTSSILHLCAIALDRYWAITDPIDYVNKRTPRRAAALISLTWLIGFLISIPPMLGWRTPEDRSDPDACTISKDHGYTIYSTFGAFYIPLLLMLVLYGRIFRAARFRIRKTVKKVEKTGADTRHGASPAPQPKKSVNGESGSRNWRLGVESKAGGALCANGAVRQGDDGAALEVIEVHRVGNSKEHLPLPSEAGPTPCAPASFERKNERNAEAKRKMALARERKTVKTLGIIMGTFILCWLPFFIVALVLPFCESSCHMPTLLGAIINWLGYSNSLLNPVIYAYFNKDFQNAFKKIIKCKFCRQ

[3] = molecular target: 5-hydroxytryptamine receptor 2B (Homo sapiens, UniProt P41595); format: functional, cell-based
[4] = molecular target: Voltage-gated inwardly rectifying potassium channel KCNH2 (Homo sapiens, UniProt Q12809); format: functional
[5] = molecular target: T3, Amine oxidase [flavin-containing] A (Homo sapiens, UniProt P21397); format: functional
T3 sequence (P21397 whole entry): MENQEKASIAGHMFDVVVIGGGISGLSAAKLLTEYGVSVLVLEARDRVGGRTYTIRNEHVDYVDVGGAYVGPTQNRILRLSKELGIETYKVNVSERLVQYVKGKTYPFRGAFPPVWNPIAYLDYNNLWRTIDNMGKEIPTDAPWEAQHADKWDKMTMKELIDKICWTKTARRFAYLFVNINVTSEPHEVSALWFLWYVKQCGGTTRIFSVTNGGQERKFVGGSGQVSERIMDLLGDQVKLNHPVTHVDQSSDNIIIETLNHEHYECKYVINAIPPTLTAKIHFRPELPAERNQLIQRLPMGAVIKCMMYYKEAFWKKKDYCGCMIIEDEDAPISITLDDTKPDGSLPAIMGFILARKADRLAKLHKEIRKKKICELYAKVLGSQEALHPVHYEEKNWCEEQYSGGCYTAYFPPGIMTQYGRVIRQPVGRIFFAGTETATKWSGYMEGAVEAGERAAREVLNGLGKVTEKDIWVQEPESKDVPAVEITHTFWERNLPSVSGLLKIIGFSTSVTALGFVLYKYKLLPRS

Mu-type opioid receptor = Mu-type opioid receptor (Homo sapiens, UniProt P35372)
[6] = molecular target: cGMP-inhibited 3',5'-cyclic phosphodiesterase 3A (Homo sapiens, UniProt Q14432); format: functional
[7] = molecular target: 3',5'-cyclic-AMP phosphodiesterase 4A (Homo sapiens, UniProt P27815); format: functional
[8] = molecular target: T4, Prostaglandin G/H synthase 1 (Homo sapiens, UniProt P23219); format: functional
[9] = molecular target: T4, Prostaglandin G/H synthase 1; format: functional; remark: listed apart in the source
[10] = molecular target: Sodium-dependent noradrenaline transporter (Homo sapiens, UniProt P23975)
Thromboxane A2 receptor [11] = molecular target: T5, Thromboxane A2 receptor (Homo sapiens, UniProt P21731); format: functional, cell-based
T5 sequence (P21731 whole entry): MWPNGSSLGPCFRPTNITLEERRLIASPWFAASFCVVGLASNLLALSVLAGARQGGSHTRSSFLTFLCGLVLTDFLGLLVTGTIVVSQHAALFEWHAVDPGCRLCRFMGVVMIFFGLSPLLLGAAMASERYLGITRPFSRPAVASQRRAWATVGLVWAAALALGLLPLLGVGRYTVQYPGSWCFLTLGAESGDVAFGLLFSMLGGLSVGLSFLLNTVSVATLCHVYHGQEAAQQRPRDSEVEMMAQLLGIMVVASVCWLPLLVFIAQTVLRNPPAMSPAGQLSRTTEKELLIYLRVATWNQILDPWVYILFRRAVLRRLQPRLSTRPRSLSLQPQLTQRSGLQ

Thromboxane A2 receptor [12] = molecular target: T5, Thromboxane A2 receptor; format: functional, cell-based; remark: listed apart in the source
Also: assay procedure not described here.

Sequence of D(3) dopamine receptor (P35462 whole entry): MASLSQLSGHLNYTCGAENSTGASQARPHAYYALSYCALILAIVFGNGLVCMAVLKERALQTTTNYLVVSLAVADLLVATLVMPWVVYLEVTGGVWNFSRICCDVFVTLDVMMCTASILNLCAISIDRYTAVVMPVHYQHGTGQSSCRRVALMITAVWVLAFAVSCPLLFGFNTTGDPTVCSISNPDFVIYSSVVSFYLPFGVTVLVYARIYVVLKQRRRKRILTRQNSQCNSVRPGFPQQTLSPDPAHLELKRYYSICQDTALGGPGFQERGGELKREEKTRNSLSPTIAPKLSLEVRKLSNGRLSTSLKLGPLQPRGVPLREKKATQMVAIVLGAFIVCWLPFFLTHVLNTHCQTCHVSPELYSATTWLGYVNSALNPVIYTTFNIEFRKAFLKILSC
Sequence of Voltage-gated inwardly rectifying potassium channel KCNH2 (Q12809 whole entry): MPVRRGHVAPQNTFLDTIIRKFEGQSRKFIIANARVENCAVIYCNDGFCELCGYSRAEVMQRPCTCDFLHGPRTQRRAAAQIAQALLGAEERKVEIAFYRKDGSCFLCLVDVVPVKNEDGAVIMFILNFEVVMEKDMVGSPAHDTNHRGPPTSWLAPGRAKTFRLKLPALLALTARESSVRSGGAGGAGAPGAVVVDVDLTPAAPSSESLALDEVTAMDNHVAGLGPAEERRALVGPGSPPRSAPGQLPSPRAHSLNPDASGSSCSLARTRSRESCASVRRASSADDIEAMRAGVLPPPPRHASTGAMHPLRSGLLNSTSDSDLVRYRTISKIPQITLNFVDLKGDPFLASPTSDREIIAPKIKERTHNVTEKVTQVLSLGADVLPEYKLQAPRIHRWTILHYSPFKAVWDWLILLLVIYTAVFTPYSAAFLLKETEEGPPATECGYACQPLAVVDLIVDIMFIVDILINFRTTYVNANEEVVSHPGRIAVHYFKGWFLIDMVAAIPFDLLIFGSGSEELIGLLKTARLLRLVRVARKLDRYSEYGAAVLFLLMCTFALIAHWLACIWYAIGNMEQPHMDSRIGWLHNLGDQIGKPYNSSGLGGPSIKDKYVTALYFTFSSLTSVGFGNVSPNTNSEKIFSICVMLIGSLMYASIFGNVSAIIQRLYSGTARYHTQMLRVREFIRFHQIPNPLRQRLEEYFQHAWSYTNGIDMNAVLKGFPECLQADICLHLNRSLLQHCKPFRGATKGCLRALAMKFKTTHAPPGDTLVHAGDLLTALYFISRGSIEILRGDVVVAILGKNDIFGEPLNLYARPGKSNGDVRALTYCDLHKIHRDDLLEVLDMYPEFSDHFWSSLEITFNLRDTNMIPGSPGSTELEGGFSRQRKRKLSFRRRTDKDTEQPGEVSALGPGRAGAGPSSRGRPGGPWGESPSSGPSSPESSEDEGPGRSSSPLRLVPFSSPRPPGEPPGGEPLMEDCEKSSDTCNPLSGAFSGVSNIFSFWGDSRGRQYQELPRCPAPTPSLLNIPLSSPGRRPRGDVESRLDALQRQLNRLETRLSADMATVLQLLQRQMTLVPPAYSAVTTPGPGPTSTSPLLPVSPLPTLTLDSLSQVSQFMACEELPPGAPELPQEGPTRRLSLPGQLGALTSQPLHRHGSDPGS
Sequence of Mu-type opioid receptor (P35372 whole entry): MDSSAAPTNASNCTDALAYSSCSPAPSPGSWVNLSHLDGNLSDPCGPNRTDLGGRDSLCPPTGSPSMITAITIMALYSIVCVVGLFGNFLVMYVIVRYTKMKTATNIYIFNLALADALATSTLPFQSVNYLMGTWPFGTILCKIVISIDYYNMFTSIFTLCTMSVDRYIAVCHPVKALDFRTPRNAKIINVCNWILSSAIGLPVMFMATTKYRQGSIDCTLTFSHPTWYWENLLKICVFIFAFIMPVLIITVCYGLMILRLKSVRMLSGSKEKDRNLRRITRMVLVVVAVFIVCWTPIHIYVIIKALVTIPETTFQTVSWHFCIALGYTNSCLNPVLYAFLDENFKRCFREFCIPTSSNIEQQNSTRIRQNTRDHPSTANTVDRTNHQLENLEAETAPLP
Sequence of Sodium-dependent noradrenaline transporter (P23975 whole entry): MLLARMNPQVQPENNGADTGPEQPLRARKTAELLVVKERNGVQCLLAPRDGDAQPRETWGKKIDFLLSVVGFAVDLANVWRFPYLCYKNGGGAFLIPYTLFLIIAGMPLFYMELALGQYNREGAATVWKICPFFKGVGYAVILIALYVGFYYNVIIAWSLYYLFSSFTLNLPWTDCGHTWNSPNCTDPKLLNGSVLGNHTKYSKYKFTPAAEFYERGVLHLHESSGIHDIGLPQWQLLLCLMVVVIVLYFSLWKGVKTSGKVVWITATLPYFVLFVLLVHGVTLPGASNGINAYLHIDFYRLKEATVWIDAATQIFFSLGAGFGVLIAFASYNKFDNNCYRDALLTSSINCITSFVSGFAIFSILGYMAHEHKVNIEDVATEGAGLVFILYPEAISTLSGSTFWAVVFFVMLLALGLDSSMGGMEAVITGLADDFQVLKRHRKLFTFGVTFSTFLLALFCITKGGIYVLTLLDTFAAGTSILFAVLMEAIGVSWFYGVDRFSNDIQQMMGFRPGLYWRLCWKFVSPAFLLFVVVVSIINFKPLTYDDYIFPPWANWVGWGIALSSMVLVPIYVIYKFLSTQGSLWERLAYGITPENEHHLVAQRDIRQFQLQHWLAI
Sequence of 5-hydroxytryptamine receptor 2B (P41595 whole entry): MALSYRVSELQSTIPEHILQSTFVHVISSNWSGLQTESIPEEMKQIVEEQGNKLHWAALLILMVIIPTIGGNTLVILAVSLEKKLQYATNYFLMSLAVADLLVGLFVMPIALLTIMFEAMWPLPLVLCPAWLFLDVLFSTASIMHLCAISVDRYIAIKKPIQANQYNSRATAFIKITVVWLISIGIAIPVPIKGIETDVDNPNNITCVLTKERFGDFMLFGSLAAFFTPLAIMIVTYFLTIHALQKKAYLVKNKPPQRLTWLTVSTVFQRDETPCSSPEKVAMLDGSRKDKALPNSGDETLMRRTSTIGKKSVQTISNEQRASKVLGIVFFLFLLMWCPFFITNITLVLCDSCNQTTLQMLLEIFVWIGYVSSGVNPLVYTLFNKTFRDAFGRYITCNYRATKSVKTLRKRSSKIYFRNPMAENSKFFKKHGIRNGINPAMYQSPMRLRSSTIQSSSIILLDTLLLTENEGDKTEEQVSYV
Sequence of D(1A) dopamine receptor (P21728 whole entry): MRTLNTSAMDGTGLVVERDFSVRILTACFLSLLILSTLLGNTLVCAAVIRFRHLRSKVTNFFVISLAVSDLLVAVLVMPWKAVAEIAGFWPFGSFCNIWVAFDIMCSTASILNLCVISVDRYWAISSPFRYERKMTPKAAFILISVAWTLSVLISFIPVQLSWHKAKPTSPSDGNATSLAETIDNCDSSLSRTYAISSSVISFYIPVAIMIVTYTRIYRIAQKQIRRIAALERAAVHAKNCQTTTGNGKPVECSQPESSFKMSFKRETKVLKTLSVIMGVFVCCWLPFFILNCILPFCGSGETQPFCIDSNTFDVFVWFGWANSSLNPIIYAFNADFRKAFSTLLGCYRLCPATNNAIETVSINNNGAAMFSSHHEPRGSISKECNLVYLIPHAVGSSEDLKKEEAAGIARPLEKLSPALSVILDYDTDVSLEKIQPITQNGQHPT
Sequence of Acetylcholinesterase (P22303 whole entry): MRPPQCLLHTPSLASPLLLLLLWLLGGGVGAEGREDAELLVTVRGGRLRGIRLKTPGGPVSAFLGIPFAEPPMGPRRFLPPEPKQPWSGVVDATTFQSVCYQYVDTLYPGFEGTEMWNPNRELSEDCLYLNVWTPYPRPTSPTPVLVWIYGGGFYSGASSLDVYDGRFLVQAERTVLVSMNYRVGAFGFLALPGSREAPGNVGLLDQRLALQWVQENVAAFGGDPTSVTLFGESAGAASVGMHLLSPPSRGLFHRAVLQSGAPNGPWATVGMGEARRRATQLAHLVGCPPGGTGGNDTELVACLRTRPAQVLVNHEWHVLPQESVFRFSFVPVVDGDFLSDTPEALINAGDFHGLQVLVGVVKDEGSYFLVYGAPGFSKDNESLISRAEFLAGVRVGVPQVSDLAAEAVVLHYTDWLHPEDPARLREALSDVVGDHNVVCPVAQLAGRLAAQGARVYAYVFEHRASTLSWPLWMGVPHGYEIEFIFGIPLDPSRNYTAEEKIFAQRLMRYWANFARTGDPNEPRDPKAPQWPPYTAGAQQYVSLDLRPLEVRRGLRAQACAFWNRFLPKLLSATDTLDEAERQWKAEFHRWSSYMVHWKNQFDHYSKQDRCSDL
Sequence of 3',5'-cyclic-AMP phosphodiesterase 4A (P27815 whole entry): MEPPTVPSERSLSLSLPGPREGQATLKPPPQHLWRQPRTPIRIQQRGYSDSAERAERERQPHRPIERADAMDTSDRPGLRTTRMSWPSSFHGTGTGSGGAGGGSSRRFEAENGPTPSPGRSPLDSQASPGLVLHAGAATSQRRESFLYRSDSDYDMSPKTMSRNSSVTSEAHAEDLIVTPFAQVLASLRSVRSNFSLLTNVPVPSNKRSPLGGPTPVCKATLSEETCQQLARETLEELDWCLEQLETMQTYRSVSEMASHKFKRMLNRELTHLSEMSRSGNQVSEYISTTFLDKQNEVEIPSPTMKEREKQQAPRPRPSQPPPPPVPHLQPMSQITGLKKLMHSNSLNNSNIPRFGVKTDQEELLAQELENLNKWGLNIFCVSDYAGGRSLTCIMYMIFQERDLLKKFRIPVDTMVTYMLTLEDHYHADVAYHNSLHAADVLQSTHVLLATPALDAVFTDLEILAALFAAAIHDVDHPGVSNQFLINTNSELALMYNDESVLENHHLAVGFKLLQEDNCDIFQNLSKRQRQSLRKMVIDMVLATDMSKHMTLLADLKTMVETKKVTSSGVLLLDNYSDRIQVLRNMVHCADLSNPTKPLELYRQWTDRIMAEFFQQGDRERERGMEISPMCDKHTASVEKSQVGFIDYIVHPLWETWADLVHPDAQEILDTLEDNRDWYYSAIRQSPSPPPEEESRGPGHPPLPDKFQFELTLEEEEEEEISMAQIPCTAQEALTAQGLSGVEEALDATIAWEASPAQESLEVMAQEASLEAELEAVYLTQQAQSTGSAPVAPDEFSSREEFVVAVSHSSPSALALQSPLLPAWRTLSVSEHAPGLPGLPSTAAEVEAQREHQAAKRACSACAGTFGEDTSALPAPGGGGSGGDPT

SMILES | AC50 (Acetylcholinesterase) | AC50 [1] | AC50 (D(1A) dopamine receptor) | AC50 (D(3) dopamine receptor) | AC50 (Histamine H3 receptor) | AC50 [2] | AC50 [3] | AC50 [4] | AC50 [5] | AC50 (Mu-type opioid receptor) | AC50 [6] | AC50 [7] | AC50 [8] | AC50 [9] | AC50 [10] | AC50 (Thromboxane A2 receptor [11]) | AC50 (Thromboxane A2 receptor [12])
CN(CC1(C)CCCO1)S(=O)(=O)c1ccc(Cl)c(S(N)(=O)=O)c1 (centres undefined) [MEFRUSIDE] | > 30 µM | > 30 µM | > 30 µM | > 30 µM | > 30 µM | > 30 µM | > 30 µM | > 30 µM | > 30 µM | > 30 µM | > 30 µM | > 30 µM | > 30 µM | > 30 µM | > 30 µM | > 30 µM | > 30 µM
CCn1cc(C(=O)O)c(=O)c2cc3c(cc21)OCO3 [OXOLINIC ACID] | > 30 µM | > 30 µM | > 30 µM | > 30 µM | > 30 µM | > 30 µM | > 30 µM | > 30 µM | > 30 µM | > 30 µM | > 30 µM | > 30 µM | > 30 µM | > 30 µM | > 30 µM | > 30 µM | > 30 µM
CC[C@H](c1ccc(O)cc1)[C@@H](CC)c1ccc(O)cc1 [HEXESTROL] | > 30 µM | 18.7 µM | 15.5 µM | 17.5 µM | > 30 µM | > 30 µM | > 30 µM | > 30 µM | > 30 µM | 15 µM | > 30 µM | > 30 µM | 16.4 µM | > 30 µM | 8.77 µM | 21 µM | > 3 µM
CN1CCC(=C2c3ccccc3Sc3ccccc32)CC1 [PIMETHIXENE] | > 30 µM | 0.0071 µM | 0.0552 µM | 0.0497 µM | > 30 µM | 0.0145 µM | > 30 µM | 3.9 µM | > 30 µM | 8.56 µM | > 30 µM | > 30 µM | > 30 µM | > 30 µM | 0.142 µM | > 30 µM | 14 µM
C[C@H]1O[C@@H](n2cc(F)c(=O)[nH]c2=O)[C@H](O)[C@@H]1O [DOXIFLURIDINE] | > 30 µM | > 30 µM | > 30 µM | > 30 µM | > 30 µM | > 30 µM | > 30 µM | > 30 µM | > 30 µM | > 30 µM | > 30 µM | > 30 µM | > 30 µM | > 30 µM | > 30 µM | > 30 µM | > 30 µM
CC[C@H]1OC(=O)[C@H](C)C(=O)[C@H](C)[C@@H](O[C@@H]2O[C@H](C)C[C@H](N(C)C)[C@H]2O)[C@](C)(OC)C[C@@H](C)C(=O)[C@H](C)[C@H]2N(CCCCn3cnc(-c4cccnc4)c3)C(=O)O[C@]12C [TELITHROMYCIN] | > 30 µM | > 30 µM | > 30 µM | > 30 µM | > 30 µM | > 30 µM | > 30 µM | > 30 µM | > 30 µM | > 30 µM | > 30 µM | > 30 µM | 20.6 µM | > 30 µM | > 30 µM | > 30 µM | > 30 µM
N[C@@H](CO)C(=O)O [SERINE] | > 30 µM | > 30 µM | > 30 µM | > 30 µM | > 30 µM | > 30 µM | > 30 µM | > 30 µM | > 10 µM | > 30 µM | > 30 µM | > 30 µM | > 30 µM | > 30 µM | > 30 µM | > 30 µM | > 30 µM
CC(=O)O[C@]1(C(C)=O)CC[C@H]2[C@@H]3C=C(C)C4=CC(=O)CC[C@@H]4[C@H]3CC[C@@]21C [NOMEGESTROL ACETATE] | > 30 µM | > 30 µM | > 30 µM | > 30 µM | > 30 µM | > 30 µM | > 30 µM | > 30 µM | > 30 µM | > 30 µM | > 30 µM | > 30 µM | > 30 µM | > 30 µM | > 30 µM | > 30 µM | > 10 µM
C#C[C@]1(O)CC[C@H]2[C@@H]3CCC4=CC(=O)CC[C@@H]4[C@H]3C(=C)C[C@@]21CC [ETONOGESTREL] | > 30 µM | > 30 µM | > 30 µM | > 30 µM | > 30 µM | > 30 µM | > 30 µM | > 30 µM | > 30 µM | 10.5 µM | > 30 µM | > 30 µM | > 30 µM | > 30 µM | > 30 µM | > 30 µM | > 30 µM
[H]/N=C(\N/C(=N/[H])Nc1ccc(Cl)cc1)NC(C)C [PROGUANIL] | > 30 µM | > 30 µM | 8.26 µM | > 30 µM | > 30 µM | > 30 µM | > 30 µM | 19 µM | > 30 µM | > 30 µM | > 30 µM | > 30 µM | > 30 µM | > 30 µM | 1.07 µM | > 30 µM | > 30 µM
CNC(=O)Oc1cccc2ccccc12 [CARBARIL] | > 30 µM | > 30 µM | > 30 µM | > 30 µM | > 30 µM | > 30 µM | > 30 µM | > 30 µM | > 30 µM | > 30 µM | > 30 µM | > 30 µM | 4.19 µM | 3.71 µM | > 30 µM | > 30 µM | > 30 µM
OC[C@H]1O[C@@](CO)(O[C@H]2O[C@H](CO)[C@@H](O)[C@H](O)[C@H]2O)[C@@H](O)[C@@H]1O [SUCROSE] | > 30 µM | > 30 µM | > 30 µM | > 30 µM | > 30 µM | > 30 µM | > 30 µM | > 30 µM | > 30 µM | > 30 µM | > 30 µM | > 30 µM | > 30 µM | > 30 µM | > 30 µM | > 30 µM | > 30 µM
